Assay results: ChEMBL document CHEMBL1201862, “PubChem BioAssay data set” (2004)
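Grown in 96-well plates, cells were treated for 48 hours with each compound at five concentrations. Insufficient inhibition: endpoint recorded as highest concentration tested. At the GI50, growth is halved.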 Active and inactive are the calls of the source. Rule as the data show it: active = GI50 up to about 1.1 µM and inactive = higher.

Key:
Test in all cases: DTP human tumour cell line panel, 48 h
[1] = test system: A549
[2] = test system: HCC 2998
[3] = test system: HT-29
[4] = test system: IGROV-1
[5] = test system: KM12
[6] = test system: M14
[7] = test system: MDA-MB-435
[8] = test system: MOLT-4
[9] = test system: NCI-H460
[10] = test system: OVCAR-3
[11] = test system: OVCAR-8
[12] = test system: SF-268
[13] = test system: SK-MEL-2
[14] = test system: SNB-19
[15] = test system: SR
[16] = test system: T47D
[17] = test system: TK-10
[18] = test system: UACC-62
[19] = test system: UO-31
[20] = test system: NCI-H226

Row | SMILES | GI50 [1] | GI50 [2] | GI50 [3] | GI50 [4] | GI50 [5] | GI50 [6] | GI50 [7] | GI50 [8] | GI50 [9] | GI50 [10] | GI50 [11] | GI50 [12] | GI50 [13] | GI50 [14] | GI50 [15] | GI50 [16] | GI50 [17] | GI50 [18] | GI50 [19] | GI50 [20]
1 | CC(C)(C)OC(=O)NC(Cc1ccc(OCc2ccccc2)cn1)C(=O)N1CCCCC1 (stereo not drawn) | 49.7 µM (inactive) | 19.9 µM (inactive) | 32 µM (inactive) | 53.7 µM (inactive) | 30.9 µM (inactive) | 37.8 µM (inactive) | 19.4 µM (inactive) | 19.5 µM (inactive) | 33.7 µM (inactive) | 35.6 µM (inactive) | 35.6 µM (inactive) | 65.6 µM (inactive) | 25.5 µM (inactive) | 80.5 µM (inactive) | 28.6 µM (inactive) | 12.1 µM (inactive) | 37.1 µM (inactive) | 29.1 µM (inactive) | 27.9 µM (inactive) | –
2 | COc1ccc2c(c1)N=C1CSC(c3cc([N+](=O)[O-])ccc3Cl)N1C2 (stereo not drawn) | 30.9 µM (inactive) | 16.6 µM (inactive) | 23.6 µM (inactive) | 34.5 µM (inactive) | 19 µM (inactive) | 27.5 µM (inactive) | 15.6 µM (inactive) | 22.5 µM (inactive) | 19.4 µM (inactive) | – | 29 µM (inactive) | 34.5 µM (inactive) | 18.2 µM (inactive) | 32.3 µM (inactive) | 26.5 µM (inactive) | 29.5 µM (inactive) | 21.4 µM (inactive) | 18.8 µM (inactive) | 19.6 µM (inactive) | 62.8 µM (inactive)
3 | O=C1CC2(CCNCC2)C(=O)N1N1CCCC1 | > 100 µM (inactive) | > 100 µM (inactive) | > 100 µM (inactive) | > 100 µM (inactive) | > 100 µM (inactive) | > 100 µM (inactive) | > 100 µM (inactive) | > 100 µM (inactive) | – | > 100 µM (inactive) | > 100 µM (inactive) | – | – | > 100 µM (inactive) | > 100 µM (inactive) | > 100 µM (inactive) | > 100 µM (inactive) | > 100 µM (inactive) | > 100 µM (inactive) | > 100 µM (inactive)
4 | Fc1ccc(C2(CCCN3CCc4[nH]c5cc(F)ccc5c4C3)OCCO2)cc1 | 14.7 µM (inactive) | 2.13 µM (inactive) | 3.81 µM (inactive) | 20.1 µM (inactive) | 13.3 µM (inactive) | 2.53 µM (inactive) | 13.5 µM (inactive) | 6.67 µM (inactive) | 10.4 µM (inactive) | – | 17.7 µM (inactive) | 15.3 µM (inactive) | – | 11.1 µM (inactive) | 7.52 µM (inactive) | 13.5 µM (inactive) | 14.8 µM (inactive) | 13.7 µM (inactive) | 3.33 µM (inactive) | 19 µM (inactive)
5 | O=S1(=O)CCN(Cc2ccccn2)CC1 | > 100 µM (inactive) | > 100 µM (inactive) | > 100 µM (inactive) | > 100 µM (inactive) | > 100 µM (inactive) | > 100 µM (inactive) | > 100 µM (inactive) | – | > 100 µM (inactive) | 4.49 µM (inactive) | > 100 µM (inactive) | > 100 µM (inactive) | > 100 µM (inactive) | > 100 µM (inactive) | > 100 µM (inactive) | > 100 µM (inactive) | > 100 µM (inactive) | > 100 µM (inactive) | > 100 µM (inactive) | > 100 µM (inactive)
6 | CCCCCCCC/C=C/CCCCCCCC1CC(O)C(=O)O1 (stereo not drawn) | 51.6 µM (inactive) | 61.4 µM (inactive) | 33.4 µM (inactive) | 85.3 µM (inactive) | – | 41.4 µM (inactive) | 38.9 µM (inactive) | 32.9 µM (inactive) | 25.1 µM (inactive) | 27.9 µM (inactive) | 55.1 µM (inactive) | 46.2 µM (inactive) | – | 65.2 µM (inactive) | 27.7 µM (inactive) | 39.5 µM (inactive) | > 100 µM (inactive) | 63.2 µM (inactive) | 62.8 µM (inactive) | > 100 µM (inactive)
7 | C1CCCCC2(CCCCCCCCC3(CCC1)OCCO3)OCCO2 | > 100 µM (inactive) | > 100 µM (inactive) | > 100 µM (inactive) | > 100 µM (inactive) | > 100 µM (inactive) | > 100 µM (inactive) | > 100 µM (inactive) | – | > 100 µM (inactive) | > 100 µM (inactive) | > 100 µM (inactive) | > 100 µM (inactive) | > 100 µM (inactive) | > 100 µM (inactive) | > 100 µM (inactive) | > 100 µM (inactive) | > 100 µM (inactive) | > 100 µM (inactive) | < 0.01 µM (active) | > 100 µM (inactive)
8 | CN(C)CCCNc1ccc2nnn3c4ccc(OC(=O)c5ccccc5)cc4c(=O)c1c23 | 2.43 µM (inactive) | 9.08 µM (inactive) | 3.71 µM (inactive) | 2.11 µM (inactive) | 4.92 µM (inactive) | 13.4 µM (inactive) | 6.4 µM (inactive) | 0.192 µM (active) | 0.76 µM (active) | 11.5 µM (inactive) | 4.55 µM (inactive) | 10.5 µM (inactive) | 15.9 µM (inactive) | 10.9 µM (inactive) | 0.697 µM (active) | 18.7 µM (inactive) | 7.8 µM (inactive) | 14.5 µM (inactive) | 4.14 µM (inactive) | –
9 | c1ccc([P+](CCCCCC[P+](c2ccccc2)(c2ccccc2)c2ccccc2)(c2ccccc2)c2ccccc2)cc1 | 7.41 µM (inactive) | 46.7 µM (inactive) | 7.24 µM (inactive) | 3.84 µM (inactive) | 3.85 µM (inactive) | 28.6 µM (inactive) | 15.2 µM (inactive) | 22.9 µM (inactive) | 9.38 µM (inactive) | 19.8 µM (inactive) | 13.3 µM (inactive) | 3.49 µM (inactive) | – | 0.906 µM (active) | 21.1 µM (inactive) | 4.92 µM (inactive) | 8.36 µM (inactive) | 18 µM (inactive) | > 100 µM (inactive) | 8.87 µM (inactive)
10 | CC1NCCC(CC(=O)O)C1CC(=O)O (stereo not drawn) | > 100 µM (inactive) | > 100 µM (inactive) | > 100 µM (inactive) | > 100 µM (inactive) | > 100 µM (inactive) | > 100 µM (inactive) | > 100 µM (inactive) | – | > 100 µM (inactive) | > 100 µM (inactive) | > 100 µM (inactive) | > 100 µM (inactive) | > 100 µM (inactive) | > 100 µM (inactive) | > 100 µM (inactive) | > 100 µM (inactive) | > 100 µM (inactive) | > 100 µM (inactive) | > 100 µM (inactive) | > 100 µM (inactive)
11 | CCNC1=C(NC(=O)c2ccccc2)C(=O)c2ccccc2C1=O | 67.6 µM (inactive) | 33 µM (inactive) | 36.6 µM (inactive) | 46.9 µM (inactive) | 30.4 µM (inactive) | 26.2 µM (inactive) | 7.21 µM (inactive) | 63.4 µM (inactive) | 39.4 µM (inactive) | 25.1 µM (inactive) | 46.8 µM (inactive) | – | – | 83.2 µM (inactive) | 40.2 µM (inactive) | 14.1 µM (inactive) | 98.4 µM (inactive) | 20 µM (inactive) | – | 27.9 µM (inactive)
